Series [1] is described as follows: Chemical stability of methyl farnesoate (oxidation, heat during drying). The format is physicochemical. To be noted: exposure to temperatures above about 50 degrees Celsius during drying. From the text:
Recent scientific studies have shown that the hormone methyl farnesoate [methyl-(2E,6E,10E)-3,7,11-trimethyldodecatri-2,6,10-eneoate] […] Because methyl farnesoate oxidizes quickly and therefore will not build up large concentrations in the soil, and because it is a fatty acid, it is not considered to be harmful to the environment or adversely affect crop production. However, it is for these same reasons that administration of methyl farnesoate is difficult to administer.
In some further embodiments, the particles once formed can be dried to have a moisture content of, for example, about 5% and about 18%. Drying the particles assist in the efficient packaging, distribution, and dispensing of the particles. During such drying, the particles should not be exposed to extreme heat, which could reduce methyl farnesoate concentrations. […] Thus, in some embodiments, the pellets may be dried at a temperature below about 50 degrees Celsius. In some embodiments, relatively lower temperature drying can be enhanced by circulating ambient air over the particles.

For series [2] the following is noted: exposed to oxidizing agents in the environment; cited from earlier work.
Series [3] deals with tadpole shrimp. Briefly: Inhibition of sexual development in tadpole shrimp in laboratory conditions. The format is in vivo, Triops longicaudatus. From the text:
As above, the dry base, the viscous additive, and the saline solution form the means for delivering the methyl farnesoate. In some embodiments, the composition may include a preparation comprising an effective amount of methyl farnesoate. In some embodiments, the composition can include a minimum of about 0.0001% methyl farnesoate by weight. In some embodiments, the composition can include a maximum of about 0.001% methyl farnesoate by weight. It has been determined that a concentration of as little as about 0.75 micrograms of methyl farnesoate per gram of the final composition is effective for inhibiting sexual development in tadpole shrimp in laboratory conditions. […] Thus, in some embodiments, compositions containing at least about […] micrograms of methyl farnesoate per gram of the final composition may be used to reduce sexual development in tadpole shrimp. However, it is to be appreciated that the percentage of methyl farnesoate by weight may be greater or less than these amounts in accordance with some embodiments of the present invention.

For series [4], the system named is tadpole shrimp. To be noted: cited from earlier work.

Take `COC(=O)/C=C(\C)CC/C=C(\C)CCC=C(C)C` [methyl farnesoate, methyl-(2E,6E,10E)-3,7,11-trimethyldodecatri-2,6,10-eneoate]: the “loss of methyl farnesoate concentration from the pellets on heating” value in series [1] is listed as “significant loss”. Further, the oxidative stability result in series [2] was “easily oxidized into farnesoic acid”. Further, the “concentration of methyl farnesoate effective for inhibiting sexual development in tadpole shrimp” value in series [3] is listed as “about 0.75 micrograms of methyl farnesoate per gram of the final composition”. Moreover, in series [4] (recent scientific studies), the “effect on growth, development and gamete production in pests such as tadpole shrimp” value is “inhibits growth, development, and gamete production”. Moreover, the “effect on sexual development of tadpole shrimp” value in series [4] (studies) is listed as “reduces sexual development”.

The record behind these values is patent publication US8293278B2, “Compositions and methods for inhibiting reproduction in tadpole shrimp” (Fresno California State University, priority 2008, dated 2012).
